Measured values: patent publication US4778912A, “Phospholipid derivatives” (priority 1985, dated 1988)
In brackets after ≈: the same amount, converted by molar mass. Entries after “also recorded” stand apart in the source; their conditions may differ. Like-named read-outs stand apart in the source and are kept apart here.

Key:
[1] = background, cited from earlier work
mouse = conditions: iv administration; cited from earlier work
platelet [2] = conditions: cited from earlier work; for platelet activating / platelet aggregation action (in words): background
tumor = conditions: background; cited from earlier work
Sarcoma 180 cells = assay: Antitumor action in ICR mice inoculated intraperitoneally with Sarcoma 180 cells (life-span prolongation, 60-day survivors); format: in vivo; conditions: for responders at 0.33 mg: read-out: 60th day: No. of survived mice/No. of tested mice (converted); for response vs control in vivo at 0.33 mg: read-out: Life-span prolongation ratio (T/C %)
Method: The assay was carried out under the same conditions as Test Example 1-i.

platelet [3] = assay: Effect on platelet: platelet aggregation (PAF activity) in platelet rich plasma; format: cell-based, male rabbit; conditions: Oryctolagus cuniculus, Table 5, rabbit PRP, 400,000 cells/1 μl, read-out: PAF activity EC50 (drug concentration causing 50% platelet aggregation)
Method: This PRP was further centrifuged at 3,000 r.p.m. for 15 minutes to obtain platelet poor plasma (PPP). By using this PPP, the PRP was diluted and so adjusted as to have a constant platelet concentration (400,000 cells/1 μl). […] Platelet aggregation was measured by using a platelet aggregometer (manufactured by Rika Denki Co. in Japan).

MM46 cells = assay: Antitumor action in C3H/He mice inoculated intraperitoneally with MM46 cells (life-span prolongation, 60-day survivors); format: in vivo; conditions: for responders at 0.25 mg: 1440 h, read-out: 60th day: No. of survived mice/No. of tested mice (converted); for response vs control in vivo at 0.25 mg: read-out: Life-span prolongation ratio (T/C %)
Method: (i) C3H/He mice (a group consisting of five mice) were inoculated intraperitoneally with 1×10^4 MM46 cells per mouse, and each mouse was intraperitoneally given 0.25 mg of drug for consecutive 4 days, starting from the second day after the inoculation.
(ii) In the above test, each mouse was inoculated intraperitoneally with 1×10^5 MM46 cells and 0.25 mg of drug was given intraperitoneally to each mouse for consecutive 4 days, starting from the second day after the inoculation.
The assay was carried out under the same conditions as Test Example 2-i.

[4] = test system: PAF-induced platelet aggregation; assay: Inhibition action against PAF in platelet aggregation (Washed PRP); format: cell-based, male rabbit; conditions: Oryctolagus cuniculus
Method: Blood was collected from a male rabbit, using a syringe containing 3.15% of citric acid (at a ratio of 1 part to 9 parts of blood) as an anticoagulant and centrifuged at 1,000 r.p.m. at room temperature for 10 minutes to obtain platelet rich plasma (PRP). This PRP was further centrifuged at 1,400 r.p.m. for 15 minutes to obtain platelet pellet, which was then suspended in Ca^++ -free Tyrode (containing 0.25% of gelatin) to prepare Washed PRP. 250 μl of the Washed PRP was stirred at 37° C. for 2 minutes, and admixed with 25 μl of 0.2-0.5 mM Ca^++ solution, followed by stirring for another 30 seconds. Then, a test compound was added to the mixture to a concentration of 3×10^-5 M and after further stirring for 2 minutes, 3×10^-7 M of PAF was added to the mixture. Platelet aggregation was measured by using a platelet aggregometer (manufactured by Rika Denki Co. in Japan). The activity of the test compound was determined from an inhibition ratio for maximum transmission (i.e. maximum aggregation ratio) by PAF in the control PRP.
Inhibition activity against PAF in platelet aggregation was assayed under the same conditions as Test Example 5.

[5] = test system: human myelogenous leukemia cells HL-60; assay: Multiplication-inhibiting effect against human myelogenous leukemia cells HL-60; format: cell-based; conditions: Table 4, read-out: Multiplication inhibition against HL-60 (IC50)
Method: Shown in Table 4 is the multiplication-inhibiting effect (IC50) of the compound of the present invention against human myelogenous leukemia cells HL-60. The assay was conducted according to the method of R. Gallo et al.: Blood, Vol 54, 713 (1979).

[6] = Sarcoma-180, 1440 h, Table 1, 0.33 mg/mouse ip, three times
[7] = Table 1, 1×10^5 Sarcoma 180 cells ip, 0.33 mg/mouse ip, three times (1 hour, 1 day, 2 days after inoculation), only mice surviving less than 60 days
[8] = Table 2, 1×10^4 MM46 cells, 0.25 mg/mouse ip, 4 days
[9] = Mus musculus, ip, Table 2, 1×10^4 MM46 cells ip, 0.25 mg/mouse ip for consecutive 4 days from second day, only mice surviving less than 60 days
[10] = Table 6, test compound 3×10^-5 M, PAF 3×10^-7 M, read-out: Inhibition ratio
[11] = Mus musculus, Sarcoma-180, ip, 1440 h, Table 7, same conditions as Test Example 1-i
[12] = Mus musculus, Sarcoma-180, ip, Table 7, same conditions as Test Example 1-i
[13] = Mus musculus, ip, Table 8, same conditions as Test Example 2-i
[14] = Table 10, same conditions as Test Example 5, read-out: Inhibition ratio

Compound: CCCCCCCCCCCCCCCCCCOCC(COP(=O)([O-])OCC[N+](C)(C)C)OC(C)=O (stereo not drawn) [Compound (II)]
- side effects and toxicity (in words) ([1]; listed as PAF): neutrophil-activating, tissue-impairing, vessel-permeability enhancing, blood-pressure lowering, heart function inhibiting, bronchoconstrictor and other actions; also recorded: toxicity for warm-blooded animals is very high
- fatal dose for a mouse (mouse): about 50 mg/kg
- platelet activating / platelet aggregation action (in words) (platelet [2]): strong platelet aggregation action

Compound: CCCCCCCCCCCCCCCCCCOCC(COP(=O)([O-])OCC[N+](C)(C)C)OC (stereo not drawn) [Compound (III), reference compound]
- antitumor action (in words) (tumor): exhibit an antitumor action
- life-span prolongation ratio compared with the control group (in words) (Sarcoma 180 cells; 1 mg/mouse, for its toxicity): smaller life-span prolongation ratio than the control group
- responders at 0.33 mg (Sarcoma 180 cells; [6]): 0%
- response vs control in vivo at 0.33 mg (Sarcoma 180 cells; [7]): 162%
- side effects and toxicity (in words) [1]: both blood-pressure lowering and topically irritating actions are observed; also recorded: high degree of its toxicity
- EC50 (platelet [3]): 30 µM
- platelet activating / platelet aggregation action (in words) (platelet [2]): possess a platelet activating action
- responders at 0.25 mg (MM46 cells; [8]): 0%
- response vs control in vivo at 0.25 mg (MM46 cells; [9]): 155%

Compound: CCCCCCCCCCCCCCCCCCOCC(COP(=O)([O-])OCC[N+](C)(C)C)OC(=O)CCC (stereo not drawn) [Compound (IV), reference compound]
- responders at 0.33 mg (Sarcoma 180 cells; [6]): 0%
- response vs control in vivo at 0.33 mg (Sarcoma 180 cells; [7]): 109%
- platelet activating action relative to that of PAF (II) (platelet [2]; Thrombosis Research, 30, 143 (1983)): about 1/10

Compound: CCCCCCCCCCCCCCCCCCOCC(COP(=O)([O-])OCC[N+](C)(C)C)OC(=O)N(C)C (stereo not drawn) [Compound (V)]
- platelet activating / platelet aggregation action (in words) (platelet [2]): remarkably strong platelet activating activity

Compound: CCCCCCCCCCCCCCCCCCOCC(COP(=O)([O-])OCCCCCCCCCC[N+](C)(C)C)OC(=O)CC(C)=O (stereo not drawn) [Example 3, 2-(Acetoacetyloxy)-3-(octadecyloxy)propyl 10-trimethylammoniodecyl phosphate]
- inhibition at 30 µM [4, 10]: 72%
- life-span prolongation ratio (T/C %) (Sarcoma 180 cells; 1 mg/mouse, otherwise as Test Example 1-i): 369%
- number of survived mice on the 60th day (Sarcoma 180 cells; 1 mg/mouse, group of 5 mice): 2 mice
- responders at 0.33 mg (Sarcoma 180 cells; [6]): 40%
- response vs control in vivo at 0.33 mg (Sarcoma 180 cells; [7]): 326%
- IC50 [5]: 1.5 µg/mL
- responders at 0.25 mg (MM46 cells; [8]): 80%
- response vs control in vivo at 0.25 mg (MM46 cells; [9]): 132%
- response vs control in vivo at 0.25 mg (MM46 cells; Mus musculus, ip, Table 3, 1×10^5 MM46 cells ip, 0.25 mg/mouse ip for consecutive 4 days, only mice surviving less than 60 days): 125%
- 60th day: No. of survived mice/No. of treated mice (MM46 cells; Table 3, 1×10^5 MM46 cells, 0.25 mg/mouse ip, 4 days): 4/5

Compound: CCCCCCCCCCCCCCCCCCC(=O)COCC(COP(=O)([O-])OCCCCCCCCCC[N+](C)(C)C)OC (stereo not drawn) [Example 6, 2-Methoxy-3-(2-oxoeicocyloxy)propyl 10-trimethylammoniodecyl phosphate]
- responders at 0.33 mg (Sarcoma 180 cells; [11]): 0%
- response vs control in vivo at 0.33 mg (Sarcoma 180 cells; [12]): 242%
- responders at 0.25 mg (MM46 cells; [13]): 80%
- response vs control in vivo at 0.25 mg (MM46 cells; [13]): 145%

Compound: CCCCCCCCCCCCCCCCCCOCC(COP(=O)([O-])OCCCCCCCCCC[N+](C)(C)C)OC(=O)NC (stereo not drawn) [Example 8, 2-Methylcarbamoyloxy-3-octadecyloxypropyl 10-trimethylammoniodecyl phosphate]
- inhibition at 30 µM [4, 14]: 100%

Compound: CCCCCCCCCCCCCCCCCCOCC(COP(=O)([O-])OCCCCCCCCCC[N+](C)(C)C)OC(=S)NC (stereo not drawn) [Example 9, 2-Methylthiocarbamoyloxy-3-octadecyloxypropyl 10-trimethylammoniodecyl phosphate]
- inhibition at 30 µM [4, 14]: 55%
- responders at 0.25 mg (MM46 cells; [13]): 40%
- response vs control in vivo at 0.25 mg (MM46 cells; [13]): 170%

Compound: CCCCCCCCCCCCCCCCCCOCC(COP(=O)([O-])OCCCCCCCCCC[N+](C)(C)C)OC (stereo not drawn) [Example 10, 2-Methoxy-3-octadecyloxypropyl 10-trimethylammoniodecyl phosphate]
- inhibition at 30 µM [4, 14]: 53%
- responders at 0.33 mg (Sarcoma 180 cells; [11]): 0%
- response vs control in vivo at 0.33 mg (Sarcoma 180 cells; [12]): 212%
- responders at 0.25 mg (MM46 cells; [13]): 40%
- response vs control in vivo at 0.25 mg (MM46 cells; [13]): 249%

Compound: CCCCCCCCCCCCCCCCCCNC(=O)OCC(COP(=O)([O-])OCCCCCCCCCC[N+](C)(C)C)OC (stereo not drawn) [Example 11, 3-Octadecylcarbamoyloxy-2-methoxypropyl 10-trimethylammoniodecyl phosphate]
- responders at 0.33 mg (Sarcoma 180 cells; [11]): 0%
- response vs control in vivo at 0.33 mg (Sarcoma 180 cells; [12]): 253%
- responders at 0.25 mg (MM46 cells; [13]): 40%
- response vs control in vivo at 0.25 mg (MM46 cells; [13]): 186%

Compound: CCCCCCCCCCCCCCCCCCOCC(COP(=O)([O-])OCCCCCCCCCC[N+](C)(C)C)OCC(C)=O (stereo not drawn) [Example 18, 3-(Octadecyloxy)-2-(2-oxopropyloxy)propyl 10-trimethylammoniodecyl phosphate]
- inhibition at 30 µM [4, 10]: 100%
- EC50 (platelet [3]): > 100 µM

Compound: CCCCCCCCCCCCCCCCCCOCC(COP(=O)([O-])OCCCCCCCC[N+](C)(C)C)OC(=O)CC(C)=O (stereo not drawn) [Example 29, 2-(Acetoacetoxy)-3-(octadecyloxy)propyl 8-trimethylammoniooctyl phosphate]
- inhibition at 30 µM [4, 14]: 96%

Compound: COC(COCCCCCCCCCCCCC1CCCCC1)COP(=O)([O-])OCCCCCCCCCC[N+](C)(C)C (stereo not drawn) [Example 33, 3-(12-Cyclohexyldodecyloxy)-2-methoxypropyl 10-trimethylammoniodecyl phosphate]
- inhibition at 30 µM [4, 14]: 100%
- responders at 0.33 mg (Sarcoma 180 cells; [11]): 0%
- response vs control in vivo at 0.33 mg (Sarcoma 180 cells; [12]): 266%

Compound: COC(COCCCCCCCCCCCCCCC(C)C)COP(=O)([O-])OCCCCCCCCCC[N+](C)(C)C (stereo not drawn) [Example 39, 2-Methoxy-3-(15-methylhexadecyloxy)propyl 10-trimethylammoniodecyl phosphate]
- inhibition at 30 µM [4, 14]: 69%
- responders at 0.33 mg (Sarcoma 180 cells; [11]): 0%
- response vs control in vivo at 0.33 mg (Sarcoma 180 cells; [12]): 265%

Compound: CC(=O)CC(=O)OC(COCCCCCCCCCCCCCCC(C)C)COP(=O)([O-])OCCCCCCCCCC[N+](C)(C)C (stereo not drawn) [Example 43, 2-(Acetoacetyloxy)-3-(15-methylhexadecyloxy)propyl 10-trimethylammoniodecylphosphate]
- inhibition at 30 µM [4, 14]: 100%
- responders at 0.33 mg (Sarcoma 180 cells; [11]): 40%
- response vs control in vivo at 0.33 mg (Sarcoma 180 cells; [12]): 128%
- responders at 0.25 mg (MM46 cells; [13]): 0%
- response vs control in vivo at 0.25 mg (MM46 cells; [13]): 232%

Compound: CCCCCCCCCCCCCCCCCCOCC(COP(=O)([O-])OCCCCCCCC[N+](C)(C)C)OC(=O)NC (stereo not drawn) [Example 44, 2-Methylcarbamoyloxy-3-octadecyloxypropyl 8-trimethylammoniooctyl phosphate]
- inhibition at 30 µM [4, 14]: 100%

Compound: CCCCCCCCCCCCCCCCCCOCC(COP(=O)([O-])OCCCCCCCCCC[N+](C)(C)C)OCC(=O)O (stereo not drawn) [Example 46, 2-(Carboxymethyloxy)-3-(octadecyloxy)propyl 10-trimethylammoniodecyl phosphate]
- responders at 0.33 mg (Sarcoma 180 cells; [11]): 0%
- response vs control in vivo at 0.33 mg (Sarcoma 180 cells; [12]): 335%
- responders at 0.25 mg (MM46 cells; [13]): 20%
- response vs control in vivo at 0.25 mg (MM46 cells; [13]): 287%

Compound: CCCCCCCCCCCCCCCCCCOCC(COP(=O)([O-])OCC[N+](C)(C)C)OC(=O)CC(C)=O (stereo not drawn) [Reference compound 1, reference compound]
- inhibition at 30 µM [4, 10]: 0%
- IC50 [5]: 6.6 µg/mL (≈ 11.1 µM)

Compound: CCCCCCCCCCCCCCCCCCOCC(COP(=O)([O-])OCCC[N+](C)(C)C)OC(=O)CC(C)=O (stereo not drawn) [Reference compound 2, reference compound]
- inhibition at 30 µM [4, 10]: 0%
- IC50 [5]: 11 µg/mL (≈ 18.1 µM)

Compound: CCCCCCCCCCCCCCCCCCNC(=O)OCC(COP(=O)([O-])OCC[N+](C)(C)C)OC (stereo not drawn) [VI, reference compound]
- antitumor action (in words) (tumor): not sufficient
- responders at 0.33 mg (Sarcoma 180 cells; [6]): 0%
- response vs control in vivo at 0.33 mg (Sarcoma 180 cells; [7]): 202%
